Experiment [1] can be described thus: Acute in vivo food intake test in mice. Particulars: 24h food intake, male or female C57BI/6 mice, high caloric diet, oral gavage 100 mg/kg/day in two half doses. On the procedure: 2. Acute in vivo food intake test in mice
The studies were carried out in male or female C57BI/6 mice (n=8-12 per group). The mice were kept on an inverted 12/12h light/dark cycle (lights on 22:00). They were allowed food (high caloric diet) and water ad libitum. Food intake and water consumption was measured daily. The test compound of general Formula I was suspended in 1% methylcellulose in water and 2% (v/v) of Poloxamer 188 (Lutrol F68®) and administered by oral gavage at a dose of 100 mg/kg/day. One half of the dose was administered at 7.00-9.00 h; the remaining half of the dose was administered between 15.00-15.30 h.
In the test model described above, the test substances caused a decrease of the animals' 24h food intake to the percentages of food intake when compared to control as given in Table 2 below. Table 2: Influence of test substances on food intake

The target in experiment [2] is T1, human carbonic anhydrase isoenzyme II (hCA II) (Homo sapiens, UniProt P00918).
T1 construct: human carbonic anhydrase isoenzyme II from erythrocytes (Sigma-Aldrich); purchased Sigma-Aldrich; host or cells: human erythrocytes (natural source)
Nature of the experiment: biochemical. The note with it: hCA II from erythrocytes 10^-7 M/L, dansylamide 2.25x10^-6, pH 7.4, 60 min preincubation, read at 60 min at 37°C, single measurements. It counts as binding. As to the method: 1. In vitro inhibition of human carbonic anhydrase isoenzyme II (hCA II)
The test compounds of general Formula I in 96 well microplates were diluted with aqua bidest by using an automatic pipettor (CyBiWell®). From the different dilution plates, aliquots of 20 µl were transferred to the 96 well black assay plates with a pipetting station (Tecan Genesis®). In a second step, 148 µl of potassium phosphate buffer (20 mM, pH 7.4) was added, and as a third step, 20 µl of enzyme solution (1 µM human carbonic anhydrase isoenzyme II from erythrocytes (Sigma-Aldrich), dissolved in potassium phosphate buffer) incubated for 60 min at room temperature and the fluorescence signal (Tecan Ultra® fluorescence reader; excitation wavelength: 280 nm; emission wavelength: 465 nm) read at the end of the preincubation period (FLU-1). After the preincubation time, 20 µl of aqueous dansylamide solution (1 mM dansylamide (Sigma-Aldrich), dissolved in hydrochloric acid) were added and the fluorescence signal read every 10 min for a period of 60 min at 37°C. For calculation, the fluorescence data of the time point 60 min (FLU-2) were used. The total volume of assay mixture amounted to 208 µl. […] Data were expressed as % inhibition after calculation by the formula: % inhibition = 100((1-(FLU-2_cpd-FLU-2_blank-FLU-1_cpd+FLU-1_blank)/(FLU-2_control-FLU-2_blank-FLU-1_control-FLU-1_blank)) [formula] […]

Turning to `NS(=O)(=O)N1CCC2(CC1)CC(=O)c1ccccc1O2` [Example 1], the food intake in experiment [1] was 83 % of control.
Take `NS(=O)(=O)N1CCC2(CC1)CC(=O)c1cc(Br)ccc1O2` [Example 2]: the IC50 – broadly, the concentration that inhibits the measured activity by half – in experiment [2] was 6.6 µM.

(Values after patent publication EP1951725B1, “N-SULFAMOYL-N -BENZOPYRANPIPERIDINES AS INHBITORS OF CARBONIC ANHYDRASES” (Abbott Products GmbH, priority 2005, dated 2007).)
